The results in this text go back to ChEMBL document CHEMBL5120859, “Optimization of 4-arylthiophene-3-carboxylic acid derivatives as inhibitors of ANO1: Lead optimization studies toward their analgesic efficacy for inflammatory pain” (Eur J Med Chem, 2022).

Series [1] is described as follows: Ratio of drug concentration in brain to plasma in C57BL/6 mouse at 40 mg/kg,IG measured after 24 hrs by HPLC analysis. Conditions: po. The format is ADME, organism-based.
The nature of series [2]: Cmax in C57BL/6 mouse at 80 mg/kg,IG measured upto 24 hrs by HPLC-MS/MS analysis. The format is ADME, organism-based. More on the design: dose 80 mg/kg, time < 24 hrs, route ig. Conditions: in vivo, po.
The nature of series [3]: AUC (0 to t) in C57BL/6 mouse at 80 mg/kg,IG measured upto 24 hrs by HPLC-MS/MS analysis. It is filed as ADME, organism-based. More on the design: dose 80 mg/kg, time < 24 hrs, route ig. Conditions: in vivo, po.
A short description of series [4]: Ratio of drug concentration in brain to plasma in C57BL/6 mouse at 40 mg/kg,IG measured after 6 hrs by HPLC analysis. It is filed as ADME, organism-based. Conditions: po.
Series [5] can be described thus: Bioavailability in C57BL/6 mouse at 80 mg/kg,IG measured upto 24 hrs by HPLC-MS/MS analysis. The format is ADME, organism-based. The conditions noted are these: in vivo, po.
Series [6] is described as follows: Bioavailability in C57BL/6 mouse at 40 mg/kg,IG measured upto 24 hrs by HPLC-MS/MS analysis. The format is ADME, organism-based. Conditions: in vivo, po.
The target in series [7] is Sodium channel protein type 7 subunit alpha (Homo sapiens) (UniProt Q01118). As to the kind of experiment: Inhibition of Nav1.7 (unknown origin) in half-inactivated condition at 30 uM by whole cell patch clamp electrophysiology relative to control. Background: The patch-clamp technique gives a direct electrical read-out from membranes.
Chain of Sodium channel protein type 7 subunit alpha (Homo sapiens) (Q01118 whole entry): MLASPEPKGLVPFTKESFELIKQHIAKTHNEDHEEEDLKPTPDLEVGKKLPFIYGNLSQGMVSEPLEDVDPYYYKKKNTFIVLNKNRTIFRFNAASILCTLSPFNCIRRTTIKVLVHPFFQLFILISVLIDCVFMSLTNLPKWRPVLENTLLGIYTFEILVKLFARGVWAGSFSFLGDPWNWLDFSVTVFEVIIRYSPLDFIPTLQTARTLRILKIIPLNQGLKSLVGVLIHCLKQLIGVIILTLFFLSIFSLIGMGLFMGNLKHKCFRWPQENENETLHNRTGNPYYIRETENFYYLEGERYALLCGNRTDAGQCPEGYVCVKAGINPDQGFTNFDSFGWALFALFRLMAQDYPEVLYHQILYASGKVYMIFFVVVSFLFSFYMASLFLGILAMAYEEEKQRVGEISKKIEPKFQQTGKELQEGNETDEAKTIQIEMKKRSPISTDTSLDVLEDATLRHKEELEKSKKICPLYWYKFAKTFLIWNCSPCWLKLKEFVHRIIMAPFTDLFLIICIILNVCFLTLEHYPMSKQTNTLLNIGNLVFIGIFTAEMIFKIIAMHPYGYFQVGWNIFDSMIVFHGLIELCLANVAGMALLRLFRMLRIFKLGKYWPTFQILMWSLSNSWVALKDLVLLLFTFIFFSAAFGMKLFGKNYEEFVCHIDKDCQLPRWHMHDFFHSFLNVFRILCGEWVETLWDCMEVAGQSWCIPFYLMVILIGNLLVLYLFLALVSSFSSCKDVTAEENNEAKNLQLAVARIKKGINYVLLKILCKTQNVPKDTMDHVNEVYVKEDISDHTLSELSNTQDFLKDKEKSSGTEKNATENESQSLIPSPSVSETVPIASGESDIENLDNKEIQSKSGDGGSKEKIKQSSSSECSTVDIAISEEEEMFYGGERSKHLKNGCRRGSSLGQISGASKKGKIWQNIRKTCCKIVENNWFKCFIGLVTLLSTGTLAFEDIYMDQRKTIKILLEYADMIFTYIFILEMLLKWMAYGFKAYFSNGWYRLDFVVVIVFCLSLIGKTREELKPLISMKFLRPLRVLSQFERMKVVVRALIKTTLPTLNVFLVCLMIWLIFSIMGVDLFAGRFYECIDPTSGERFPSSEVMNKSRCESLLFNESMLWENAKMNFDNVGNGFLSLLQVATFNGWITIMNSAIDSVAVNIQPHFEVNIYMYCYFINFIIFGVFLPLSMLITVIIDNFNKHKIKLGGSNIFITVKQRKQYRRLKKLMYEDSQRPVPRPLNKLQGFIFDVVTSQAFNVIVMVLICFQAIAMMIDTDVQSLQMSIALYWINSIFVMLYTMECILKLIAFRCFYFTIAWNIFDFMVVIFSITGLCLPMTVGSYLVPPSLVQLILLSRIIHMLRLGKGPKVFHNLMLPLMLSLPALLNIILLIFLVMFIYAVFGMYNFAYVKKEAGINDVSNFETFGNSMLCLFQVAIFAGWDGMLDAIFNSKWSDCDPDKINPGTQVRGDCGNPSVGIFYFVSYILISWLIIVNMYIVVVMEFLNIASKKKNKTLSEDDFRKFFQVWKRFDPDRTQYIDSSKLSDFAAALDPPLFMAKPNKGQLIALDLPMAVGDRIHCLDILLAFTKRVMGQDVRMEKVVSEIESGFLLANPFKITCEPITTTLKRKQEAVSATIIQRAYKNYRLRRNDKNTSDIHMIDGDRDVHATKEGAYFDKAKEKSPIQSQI
The test system of series [8] is Mus musculus. In words: Analgesic activity in C57BL/6 mouse model of capsaicin-induced allodynia assessed as reduction on foot licking pain response at 80 mg/kg,po measured after 5 mins. The format is functional, organism-based.
Series [9] deals with T1, Anoctamin-1 (Homo sapiens, UniProt Q5XXA6).
T1 sequence (Q5XXA6 whole entry): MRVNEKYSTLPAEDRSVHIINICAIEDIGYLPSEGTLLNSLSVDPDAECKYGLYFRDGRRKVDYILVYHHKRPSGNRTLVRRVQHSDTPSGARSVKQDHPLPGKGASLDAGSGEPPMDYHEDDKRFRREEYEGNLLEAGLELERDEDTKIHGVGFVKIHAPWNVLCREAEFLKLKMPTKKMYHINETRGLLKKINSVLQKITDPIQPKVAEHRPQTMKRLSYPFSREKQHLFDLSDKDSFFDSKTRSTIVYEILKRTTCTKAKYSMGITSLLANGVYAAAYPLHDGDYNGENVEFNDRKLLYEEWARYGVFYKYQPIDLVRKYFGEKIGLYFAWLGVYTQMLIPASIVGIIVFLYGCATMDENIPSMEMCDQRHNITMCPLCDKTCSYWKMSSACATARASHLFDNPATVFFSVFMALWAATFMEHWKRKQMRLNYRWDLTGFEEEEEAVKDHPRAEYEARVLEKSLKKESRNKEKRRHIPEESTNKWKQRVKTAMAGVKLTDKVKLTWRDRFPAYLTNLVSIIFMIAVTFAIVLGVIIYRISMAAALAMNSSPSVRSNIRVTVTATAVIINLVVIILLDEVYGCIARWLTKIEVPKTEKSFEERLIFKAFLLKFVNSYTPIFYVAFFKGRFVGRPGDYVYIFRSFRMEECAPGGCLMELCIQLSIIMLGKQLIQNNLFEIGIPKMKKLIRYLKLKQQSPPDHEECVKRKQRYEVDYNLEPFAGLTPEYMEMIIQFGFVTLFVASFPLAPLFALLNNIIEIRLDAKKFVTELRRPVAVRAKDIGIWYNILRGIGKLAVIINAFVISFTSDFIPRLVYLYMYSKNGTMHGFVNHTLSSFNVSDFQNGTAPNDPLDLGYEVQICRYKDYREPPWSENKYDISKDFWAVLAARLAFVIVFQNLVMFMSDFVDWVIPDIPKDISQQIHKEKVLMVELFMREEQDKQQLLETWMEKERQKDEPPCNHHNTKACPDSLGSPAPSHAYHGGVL
In words: Inhibition of YFP tagged ANO1 (unknown origin) expressed in FRT cells incubated for 24 hrs by fluorescence plate reader assay. It is filed as cell-based.

The target in series [10] is T2, Anoctamin-2 (Homo sapiens, UniProt Q9NQ90).
T2 sequence (Q9NQ90 whole entry): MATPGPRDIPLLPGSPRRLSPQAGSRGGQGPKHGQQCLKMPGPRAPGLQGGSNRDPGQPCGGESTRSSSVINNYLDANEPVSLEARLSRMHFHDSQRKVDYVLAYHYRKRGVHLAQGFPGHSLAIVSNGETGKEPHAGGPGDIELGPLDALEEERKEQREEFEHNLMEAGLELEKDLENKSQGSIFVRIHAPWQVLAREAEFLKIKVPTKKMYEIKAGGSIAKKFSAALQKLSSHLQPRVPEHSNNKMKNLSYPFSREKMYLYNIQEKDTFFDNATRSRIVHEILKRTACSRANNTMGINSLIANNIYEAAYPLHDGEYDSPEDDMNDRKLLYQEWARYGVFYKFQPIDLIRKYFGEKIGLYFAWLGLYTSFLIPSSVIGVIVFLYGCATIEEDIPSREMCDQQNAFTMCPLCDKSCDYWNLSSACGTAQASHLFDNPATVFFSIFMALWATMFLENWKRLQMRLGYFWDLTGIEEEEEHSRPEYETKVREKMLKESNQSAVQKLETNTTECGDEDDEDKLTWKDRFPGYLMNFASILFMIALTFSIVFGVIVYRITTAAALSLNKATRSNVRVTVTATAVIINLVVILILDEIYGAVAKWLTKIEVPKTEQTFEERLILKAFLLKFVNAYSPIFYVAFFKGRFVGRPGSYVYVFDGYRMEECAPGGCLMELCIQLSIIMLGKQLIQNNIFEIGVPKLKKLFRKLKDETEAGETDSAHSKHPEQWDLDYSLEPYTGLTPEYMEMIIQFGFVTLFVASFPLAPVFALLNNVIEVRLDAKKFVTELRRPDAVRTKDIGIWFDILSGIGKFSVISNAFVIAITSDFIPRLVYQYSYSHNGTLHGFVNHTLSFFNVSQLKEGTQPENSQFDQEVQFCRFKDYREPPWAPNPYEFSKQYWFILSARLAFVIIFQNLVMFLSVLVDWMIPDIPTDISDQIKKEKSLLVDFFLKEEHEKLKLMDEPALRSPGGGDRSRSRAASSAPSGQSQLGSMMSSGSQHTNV
In words: Inhibition of human ANO2 expressed in HEK293 cells incubated for 5 mins by whole cell patch clamp electrophysiology. The format is cell-based.

The nature of series [11]: Clearance in C57BL/6 mouse at 40 mg/kg,iv measured upto 24 hrs by HPLC-MS/MS analysis. Conditions: in vivo. It is filed as ADME, organism-based.
Series [12] has as its target T3, Anoctamin-1 (Homo sapiens) (UniProt Q5XXA6).
T3 sequence (whole entry): T1 sequence (Q5XXA6 whole entry)
In words: Inhibition of YFP tagged ANO1 (unknown origin) expressed in FRT cells at 30 uM incubated for 24 hrs by whole cell patch clamp electrophysiology relative to control. It is filed as cell-based.

Series [13] in a line: Acute toxicity in C57BL/6 mouse assessed as animal survival at 1000 mg/kg,po measured after 24 hrs. The conditions noted are these: in vivo. It is filed as organism-based.
Series [14] in a line: MRT (0 to t) in C57BL/6 mouse at 40 mg/kg,iv measured upto 24 hrs by HPLC-MS/MS analysis. The format is ADME, organism-based. Conditions: in vivo.
Series [15] in a line: AUC (0 to t) in C57BL/6 mouse at 40 mg/kg,IG measured upto 24 hrs by HPLC-MS/MS analysis. It is filed as ADME, organism-based. More on the design: dose 40 mg/kg, time < 24 hrs, route ig. The conditions noted are these: in vivo, po.
Series [16] can be described thus: Brain concentration in C57BL/6 mouse at 40 mg/kg,IG measured after 0.25 hrs by HPLC analysis. The format is ADME, organism-based. Conditions: po, read-out: Ct.

SMILES strings stand for the structures. Active and inactive are the calls of the source. The rule behind the calls is not given here.

In the case of `O=C(Nc1scc(-c2ccc(Cl)cc2)c1C(=O)O)c1cc(F)ccc1F`, the results for the Ratio in [1] and in series [4] were 4.5% and 1.4%, respectively. The concentration in [2] peaked (Cmax) at 130 µg/mL. Besides, the AUC(0-t) at 24 h was found to be 596 µg·h/mL in series [3] and 265 µg·h/mL in series [15]. Also, the results for the bioavailability in series [5] and in series [6] were 85.1% and 75.7%, respectively. The values for the inhibition in series [7] and in [12] were 6.5% and 95.6%, respectively. Also, the result in series [8] was Active. The 50% inhibitory concentration (IC50) in series [9] is 0.024 µM; in [10] it was 8.7 µM. Further, in series [11], the clearance stood at 1.73 mL/min/kg. In addition, the Activity entry in series [13] is given as “Non-Toxic”. The MRT last at 24 h in [14] was found to be 4.9 h. For the same molecule, in [16], the concentration at 0.25 h came to 1440 ng/g.

Broadly, the Cmax is the highest concentration seen after dosing. As usually defined, the AUC(0-t) is the area under the concentration-time curve up to a stated or last time point. A low value points to less exposure. By bioavailability is commonly meant dose-corrected exposure relative to a reference, in per cent. Lower therefore signals little systemic uptake. The inhibition is the drop in the measured response relative to a control, in per cent. High values mean a response far below the control, low ones a response near the control. Broadly, the IC50 is the concentration that inhibits the measured activity by half. For orientation: clearance means the rate of elimination divided by the concentration. Read a high clearance as efficient removal. Usually MRT last stands for a mean duration of stay, worked out from the concentration-time curve.
